For experiment [1], the system named is brains, heart, liver, muscle, and DRG of the NHPs. Nature of the experiment: Maturation of TTM-001 and TTM-002 capsids, NGS enrichment in NHP tissues. It is filed as in vivo. The following applies: relative to AAV9 control. The essentials: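 Variants carry mutations within and flanking the loop IV peptide insert: positions 450–466 were triplet-randomized, while positions 449–466 received low-frequency point mutations. The combined pool went into two NHPs, and each peptide was scored by NGS enrichment ratio against AAV9.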

The test system of experiment [2] is brain. The experiment in a line: Matured TTM-001 and TTM-002 variants, NGS enrichment in mouse brain. It counts as in vivo, mice. The following applies: mouse brain; relative to AAV9 control.
The test system of experiment [3] is brain. The experiment in a line: Maturation of TTM-002 capsid, NGS enrichment in brain of CD-1 Outbred mice. It is filed as in vivo. The following applies: NGS fold-enrichment in the brain of CD-1 Outbred mice; intravenous, 1.0×10^12 VG/dose, 14 days; RNA; relative to non-matured TTM-002 control. The source says:
This Example describes maturation of the TTM-001 (SEQ ID NO: 981 (amino acid) and 983 (DNA), comprising SEQ ID NO: 941) and TTM-002 (SEQ ID NO: 982 (amino acid) and 984 (DNA), comprising SEQ ID NO: 2) capsid variants to further enhance their transduction and biodistribution in the central nervous system and evolve the AAV capsid variants to provide further cross-species compatibility. Two approaches were used to mature the TTM-001 and TTM-002 capsid sequences in order to randomize and mutate within and around the peptide insert comprised within loop IV of the capsid variant. […] In the first maturation approach, sets of three contiguous amino acids were randomized across the mutagenesis region in the TTM-001 and TTM-002 sequences, which spanned from position 450 to position 466, numbered according to SEQ ID NO: 981 and 982. In the second maturation approach, mutagenic primers were used to introduce point mutations at a low frequency, scattered across the mutagenesis region in the TTM-001 and TTM-002 sequences ranging from position 449 to position 466, numbered according to SEQ ID NO: 981 and 982. AAV capsid variants arising from each maturation approach for TTM-001 were pooled together and AAV capsid variants arising from each maturation approach for TTM-002 were also pooled together, for subsequent testing and characterization in mice.
The library of pooled matured AAV capsid variants generated from TTM-001 or library of pooled matured AAV capsid variants generated from the TTM-002 matured AAV capsid variant each were intravenously injected into the tail vein of three female CD-1 Outbred mice (Charles River) at a dose of 1.0×10^12 VG/dose. After 14-days in life, the brains of the mice were isolated and RNA was extracted. Following RNA recovery and RT-PCR amplification, a systematic NGS enrichment analysis was performed to calculate the fold enrichment ratio relative to the corresponding TTM-001 or TTM-002 control, and the peptides comprised within the variants were identified. The data for the TTM-001 matured capsid variants is provided in Table 13 and the data for the TTM-002 matured capsid variants is provided in Table 14.

The values that follow come from US20260250318A1, “COMPOSITIONS AND METHODS FOR CROSSING THE BLOOD BRAIN BARRIER” (VOYAGER THERAPEUTICS, INC., priority 2022, published 2026).

With KAEIGHDSPHKSGQNQQT, the “Fold Enrichment relative to AAV9, Brain (NHP)” value in experiment [1] (NGS fold-enrichment of matured AAV capsid variants, NHP brain, RNA) is 63.249 fold. In addition, the “Fold Enrichment relative to AAV9, DRG (NHP)” value in experiment [1] (NHP DRG) was 0.000 fold. For the same sequence, the “Fold Enrichment relative to AAV9, Heart (NHP)” value in experiment [1] (NHP heart) was 0.000 fold. Also, in experiment [1] (NHP liver, DNA), the “Fold Enrichment relative to AAV9, Liver DNA (NHP)” value turned out to be 0.024 fold. Moreover, the “Fold Enrichment relative to AAV9, Liver RNA (NHP)” value in experiment [1] (NHP liver, RNA) is 0.060 fold. Besides, in experiment [1] (NHP muscle), the “Fold Enrichment relative to AAV9, Muscle (NHP)” value amounted to 0.000 fold. For the same sequence, the “Fold Enrichment relative to AAV9, Brain (Mouse)” value in the experiment with brain [2] was determined as 27.173 fold. In the experiment on brain [3], the “Fold enrichment over TTM-002” value was 2.17.
